For this test, the system named is neonatal human epidermal keratinocytes (HEKn). Put plainly: Intracellular ROS by fluorescence microscopy in keratinocytes exposed to urban dust, with niacinamide and/or FSO (Example 2). In kind it is cell-based. To be noted: HEKn cells, 200 μg/mL UD, about one hour exposure; niacinamide/FSO concentration per sample. How it is done:
An in vitro study was conducted to analyze the skin protecting benefits of varying concentrations of niacinamide and/or FSO. Particularly, an in vitro study was conducted to analyze the efficacy of varying concentrations of niacinamide and/or FSO in reducing and/or preventing ROS in and on the skin.
To conduct the study, neonatal human epidermal keratinocytes (HEKn) were grown in standard well plates having glass bottoms coated with collagen I. The HEKn were cultured in EpiLife™ media supplemented with human keratinocyte growth supplements (HKGS), both of which are commercially available from ThermoFisher Scientific of Waltham, MA. Stock solutions of FSO, niacinamide, and urban dust (UD) were prepared for the treatment of the keratinocytes. It should be appreciated that the UD is representative of particulate matter (PM) pollution.
The presence or amount of intracellular reactive oxygen species (ROS) was measured using fluorescence microscopy. […] After exposure to the oxidative stress detection reagent and the FSO, niacinamide, and/or UD, the keratinocytes were washed twice with a wash buffer and imaged via fluorescence in the wash buffer. Live adherent cells were imaged using GFP excitation/emission filters, and the ROS levels were quantified from raw images using ImageJ software.

In the case of `NC(=O)c1cccnc1` [Sample 13, niacinamide], the “ROS Levels (%) Relative to UD Alone” value is on record as −10.79%. The result for `NC(=O)c1cccnc1` [Sample 14, niacinamide] reads −3.89%.

The values above are taken from patent US20260199214A1, “Personal Care Compositions And Methods For The Same” (Colgate-Palmolive Company, priority 2019, published 2026).
